Assay results taken from patent US9302999B2, “Substituted triazoles as herbicides” (E. I. DU PONT DE NEMOURS AND COMPANY, priority 2012, dated 2016).

Key:
Assay type in all cases: in vivo
[1] = tested on: crabgrass, large (large crabgrass, Digitaria sanguinalis); test: Test A pre-/postemergence: crabgrass, large
Description: (§1) Seeds of barnyardgrass (Echinochloa crus-galli), crabgrass, large (large crabgrass, Digitaria sanguinalis), foxtail, giant (giant foxtail, Setaria faberii), morningglory (Ipomoea spp.), pigweed (Amaranthus retroflexus), velvetleaf (Abutilon theophrasti), wheat (Triticum aestivum), and corn (Zea mays) were planted into a blend of loam soil and sand and treated preemergence with a directed soil spray using test chemicals formulated in a non-phytotoxic solvent mixture which included a surfactant. At the same time these species were also treated with postemergence applications of test chemicals formulated in the same manner.
(§2) Plants ranged in height from two to ten cm and were in the one- to two-leaf stage for the postemergence treatment. Treated plants and untreated controls were maintained in a greenhouse for approximately ten days, after which time all treated plants were compared to untreated controls and visually evaluated for injury. Plant response ratings, summarized in Table A, are based on a 0 to 100 scale where 0 is no effect and 100 is complete control. A dash (-) response means no test result.

[2] = tested on: morningglory (Ipomoea spp.); test: Test A pre-/postemergence: morningglory
Method in brief: (§3)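 Rating scale 0–100 (100 = complete control), visual, ~10 days after application in the greenhouse. Applications: preemergence directed soil spray; postemergence at 1–2 leaves.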

[3] = tested on: wheat (Triticum aestivum); test: Test A pre-/postemergence: wheat
Method in brief: as §3

[4] = tested on: velvetleaf (Abutilon theophrasti); test: Test A pre-/postemergence: velvetleaf
Method in brief: as §3

[5] = tested on: sedge, umbrella (small-flower umbrella sedge, Cyperus difformis); test: Test C flooded paddy test: sedge, umbrella; conditions: scale 0 to 100 (0 no effect, 100 complete control)
Description: (§4) Plant species in the flooded paddy test consisted of rice (Oryza sativa), sedge, umbrella (small-flower umbrella sedge, Cyperus difformis), ducksalad (Heteranthera limosa) and barnyardgrass (Echinochloa crus-galli) grown to the 2-leaf stage for testing. At time of treatment, test pots were flooded to 3 cm above the soil surface, treated by application of test compounds directly to the paddy water, and then maintained at that water depth for the duration of the test.
(§5) Treated plants and controls were maintained in a greenhouse for 13 to 15 days, after which time all species were compared to controls and visually evaluated. Plant response ratings, summarized in Table C, are based on a scale of 0 to 100 where 0 is no effect and 100 is complete control. A dash (-) response means no test result.

rice (Oryza sativa) = test: Test C flooded paddy test: rice; conditions: scale 0 to 100 (0 no effect, 100 complete control)
Description: as §4, §5

[6] = tested on: pigweed (Amaranthus retroflexus); test: Test A pre-/postemergence: pigweed
Method in brief: as §3

corn (Zea mays) = test: Test A pre-/postemergence: corn
Description: as §1, §2

[7] = tested on: barnyardgrass (Echinochloa crus-galli); test: Test C flooded paddy test: barnyardgrass; conditions: scale 0 to 100 (0 no effect, 100 complete control)
Description: as §4, §5

[8] = tested on: ducksalad (Heteranthera limosa); test: Test C flooded paddy test: ducksalad; conditions: scale 0 to 100 (0 no effect, 100 complete control)
Description: as §4, §5

[9] = tested on: foxtail, giant (giant foxtail, Setaria faberii); test: Test A pre-/postemergence: foxtail, giant; conditions: for Foxtail, Giant plant response rating: Postemergence; for Plant response rating, Foxtail, Giant: Preemergence
Description: as §1, §2

[10] = tested on: barnyardgrass (Echinochloa crus-galli); test: Test A pre-/postemergence: barnyardgrass
Method in brief: as §3

[11] = Postemergence, 125 g ai/ha, 0 to 100 scale, 0 is no effect, 100 is complete control
[12] = Postemergence, 500 g ai/ha, visual rating on 0 to 100 scale (0 no effect, 100 complete control), approximately ten days
[13] = Preemergence, 125 g ai/ha, 0 to 100 scale (0 no effect, 100 complete control)
[14] = Preemergence, 500 g ai/ha, 0 to 100 scale, 0 is no effect, 100 is complete control
[15] = Flood (flooded paddy test), 62 g ai/ha, visual rating after 13 to 15 days
[16] = Flood (flooded paddy test), 125 g ai/ha, visual rating after 13 to 15 days
[17] = Flood (flooded paddy test), 250 g ai/ha, visual rating after 13 to 15 days
[18] = 125 g ai/ha, 0 to 100 scale, 0 is no effect, 100 is complete control
[19] = 500 g ai/ha, visual rating on 0 to 100 scale (0 no effect, 100 complete control), approximately ten days
[20] = 125 g ai/ha, 0 to 100 scale (0 no effect, 100 complete control)
[21] = 500 g ai/ha, 0 to 100 scale, 0 is no effect, 100 is complete control
[22] = Postemergence, 1000 g ai/ha, visual rating on 0 to 100 scale (0 no effect, 100 complete control), approximately ten days
[23] = Preemergence, 1000 g ai/ha, 0 to 100 scale, 0 is no effect, 100 is complete control

Cc1nn(-c2ccc(C(F)(F)F)cn2)nc1Cn1cnc(C(F)(F)F)n1 [Compound 8]
Crabgrass, Large plant response rating [1, 11]: 40
Crabgrass, Large plant response rating [1, 12]: 80
Plant response rating, Crabgrass, Large [1, 13]: 90
Plant response rating, Crabgrass, Large [1, 14]: 100
Morningglory plant response rating [2, 11]: 90
Morningglory plant response rating [2, 12]: 90
Plant response rating, Morningglory [2, 13]: 30
Plant response rating, Morningglory [2, 14]: 90
Wheat plant response rating [3, 11]: 0
Wheat plant response rating [3, 12]: 20
Plant response rating, Wheat [3, 13]: 0
Plant response rating, Wheat [3, 14]: 10
Velvetleaf plant response rating [4, 11]: 30
Velvetleaf plant response rating [4, 12]: 80
Plant response rating, Velvetleaf [4, 13]: 20
Plant response rating, Velvetleaf [4, 14]: 60
Plant response rating, Sedge, Umbrella [5, 15]: 0
Plant response rating, Sedge, Umbrella [5, 16]: 0
Plant response rating, Sedge, Umbrella [5, 17]: 75
Plant response rating, Sedge, Umbrella ([5]; Flood, 31 g ai/ha): 0
Plant response rating, Rice (rice (Oryza sativa); [15]): 0
Plant response rating, Rice (rice (Oryza sativa); [16]): 0
Plant response rating, Rice (rice (Oryza sativa); [17]): 0
Plant response rating, Rice (rice (Oryza sativa); Flood, 31 g ai/ha): 0
Pigweed plant response rating [6, 11]: 60
Pigweed plant response rating [6, 12]: 100
Plant response rating, Pigweed [6, 13]: 90
Plant response rating, Pigweed [6, 14]: 100
Corn plant response rating (corn (Zea mays); [11]): 20
Corn plant response rating (corn (Zea mays); [12]): 40
Plant response rating, Corn (corn (Zea mays); [13]): 0
Plant response rating, Corn (corn (Zea mays); [14]): 0
Plant response rating, Barnyardgrass [7, 15]: 0
Plant response rating, Barnyardgrass [7, 16]: 0
Plant response rating, Barnyardgrass [7, 17]: 0
Plant response rating, Barnyardgrass ([7]; Flood, 31 g ai/ha): 0
Plant response rating, Ducksalad [8, 15]: 0
Plant response rating, Ducksalad [8, 16]: 0
Plant response rating, Ducksalad [8, 17]: 45
Plant response rating, Ducksalad ([8]; Flood, 31 g ai/ha): 0
Foxtail, Giant plant response rating [9, 18]: 30
Foxtail, Giant plant response rating [9, 19]: 80
Plant response rating, Foxtail, Giant [9, 20]: 60
Plant response rating, Foxtail, Giant [9, 21]: 90
Barnyardgrass plant response rating [10, 11]: 10
Barnyardgrass plant response rating [10, 12]: 80
Plant response rating, Barnyardgrass [10, 13]: 20
Plant response rating, Barnyardgrass [10, 14]: 80

Cc1nn(-c2ccc(C(F)(F)F)cc2)nc1Cn1cc(C(F)(F)F)nc1Cl [Compound 9]
Crabgrass, Large plant response rating [1, 11]: 60
Crabgrass, Large plant response rating [1, 12]: 70
Plant response rating, Crabgrass, Large [1, 13]: 90
Plant response rating, Crabgrass, Large [1, 14]: 100
Morningglory plant response rating [2, 11]: 70
Morningglory plant response rating [2, 12]: 100
Plant response rating, Morningglory [2, 13]: 50
Plant response rating, Morningglory [2, 14]: 60
Wheat plant response rating [3, 11]: 0
Wheat plant response rating [3, 12]: 20
Plant response rating, Wheat [3, 13]: 0
Plant response rating, Wheat [3, 14]: 0
Velvetleaf plant response rating [4, 11]: 60
Velvetleaf plant response rating [4, 12]: 80
Plant response rating, Velvetleaf [4, 13]: 30
Plant response rating, Velvetleaf [4, 14]: 50
Plant response rating, Sedge, Umbrella [5, 15]: 40
Plant response rating, Sedge, Umbrella [5, 17]: 85
Plant response rating, Rice (rice (Oryza sativa); [15]): 0
Plant response rating, Rice (rice (Oryza sativa); [17]): 0
Pigweed plant response rating [6, 11]: 90
Pigweed plant response rating [6, 12]: 100
Plant response rating, Pigweed [6, 13]: 90
Plant response rating, Pigweed [6, 14]: 100
Corn plant response rating (corn (Zea mays); [11]): 20
Corn plant response rating (corn (Zea mays); [12]): 30
Plant response rating, Corn (corn (Zea mays); [13]): 0
Plant response rating, Corn (corn (Zea mays); [14]): 10
Plant response rating, Barnyardgrass [7, 15]: 0
Plant response rating, Barnyardgrass [7, 17]: 30
Plant response rating, Ducksalad [8, 15]: 0
Plant response rating, Ducksalad [8, 17]: 0
Foxtail, Giant plant response rating [9, 18]: 50
Foxtail, Giant plant response rating [9, 19]: 70
Plant response rating, Foxtail, Giant [9, 20]: 80
Plant response rating, Foxtail, Giant [9, 21]: 90
Barnyardgrass plant response rating [10, 11]: 50
Barnyardgrass plant response rating [10, 12]: 60
Plant response rating, Barnyardgrass [10, 13]: 30
Plant response rating, Barnyardgrass [10, 14]: 70

CCc1nn(-c2ccc(F)cc2)nc1Cn1ccc(C(F)(F)C(F)(F)F)n1 [Compound 10]
Crabgrass, Large plant response rating [1, 11]: 40
Crabgrass, Large plant response rating [1, 12]: 60
Plant response rating, Crabgrass, Large [1, 13]: 40
Plant response rating, Crabgrass, Large [1, 14]: 90
Morningglory plant response rating [2, 11]: 100
Morningglory plant response rating [2, 12]: 100
Plant response rating, Morningglory [2, 13]: 0
Plant response rating, Morningglory [2, 14]: 10
Wheat plant response rating [3, 11]: 0
Wheat plant response rating [3, 12]: 10
Plant response rating, Wheat [3, 13]: 0
Plant response rating, Wheat [3, 14]: 0
Velvetleaf plant response rating [4, 11]: 40
Velvetleaf plant response rating [4, 12]: 50
Plant response rating, Velvetleaf [4, 13]: 0
Plant response rating, Velvetleaf [4, 14]: 20
Plant response rating, Sedge, Umbrella [5, 15]: 0
Plant response rating, Sedge, Umbrella [5, 17]: 0
Plant response rating, Rice (rice (Oryza sativa); [15]): 0
Plant response rating, Rice (rice (Oryza sativa); [17]): 0
Pigweed plant response rating [6, 11]: 70
Pigweed plant response rating [6, 12]: 100
Plant response rating, Pigweed [6, 13]: 60
Plant response rating, Pigweed [6, 14]: 80
Corn plant response rating (corn (Zea mays); [11]): 20
Corn plant response rating (corn (Zea mays); [12]): 20
Plant response rating, Corn (corn (Zea mays); [13]): 0
Plant response rating, Corn (corn (Zea mays); [14]): 0
Plant response rating, Barnyardgrass [7, 15]: 0
Plant response rating, Barnyardgrass [7, 17]: 0
Plant response rating, Ducksalad [8, 15]: 0
Plant response rating, Ducksalad [8, 17]: 0
Foxtail, Giant plant response rating [9, 18]: 20
Foxtail, Giant plant response rating [9, 19]: 50
Plant response rating, Foxtail, Giant [9, 20]: 20
Plant response rating, Foxtail, Giant [9, 21]: 80
Barnyardgrass plant response rating [10, 11]: 20
Barnyardgrass plant response rating [10, 12]: 50
Plant response rating, Barnyardgrass [10, 13]: 0
Plant response rating, Barnyardgrass [10, 14]: 10

FC(F)(F)c1ccc(-n2nc(Br)c(Cc3cccc(C(F)(F)F)c3)n2)nc1 [Compound 105]
Crabgrass, Large plant response rating [1, 22]: 50
Crabgrass, Large plant response rating [1, 23]: 50
Morningglory plant response rating [2, 22]: 90
Morningglory plant response rating [2, 23]: 10
Wheat plant response rating [3, 22]: 0
Wheat plant response rating [3, 23]: 0
Velvetleaf plant response rating [4, 22]: 40
Velvetleaf plant response rating [4, 23]: 10
Plant response rating, Sedge, Umbrella [5, 16]: 0
Plant response rating, Sedge, Umbrella [5, 17]: 0
Plant response rating, Sedge, Umbrella ([5]; Flood, 31 g ai/ha): 0
Plant response rating, Sedge, Umbrella ([5]; Flood, 62 g ai/ha): 0
Plant response rating, Rice (rice (Oryza sativa); [16]): 0
Plant response rating, Rice (rice (Oryza sativa); [17]): 0
Plant response rating, Rice (rice (Oryza sativa); Flood, 31 g ai/ha): 0
Plant response rating, Rice (rice (Oryza sativa); Flood, 62 g ai/ha): 0
Pigweed plant response rating [6, 22]: 100
Pigweed plant response rating [6, 23]: 90
Corn plant response rating (corn (Zea mays); [22]): 10
Corn plant response rating (corn (Zea mays); [23]): 0
Plant response rating, Barnyardgrass [7, 16]: 0
Plant response rating, Barnyardgrass [7, 17]: 0
Plant response rating, Barnyardgrass ([7]; Flood, 31 g ai/ha): 0
Plant response rating, Barnyardgrass ([7]; Flood, 62 g ai/ha): 0
Plant response rating, Ducksalad [8, 16]: 0
Plant response rating, Ducksalad [8, 17]: 0
Plant response rating, Ducksalad ([8]; Flood, 31 g ai/ha): 0
Plant response rating, Ducksalad ([8]; Flood, 62 g ai/ha): 0
Barnyardgrass plant response rating [10, 22]: 10
Barnyardgrass plant response rating [10, 23]: 10
